Where a name gives a salt, the structure may show the parent alone.

Test [1] deals with T1, NLRP3 (Homo sapiens, UniProt Q96P20). Put plainly: THP-1 cells pyroptosis assay (LPS-primed, nigericin-triggered, resazurin readout). Also noted: Seed THP-1 cells (25,000 cells/well) containing 1.0 μg/ml LPS in 40 μl of RPMI medium; host or cells: THP-1 cells, LPS-primed, nigericin-triggered. To be noted: NLRP3 inhibitory activity in THP-1 cells, 1.0 μg/ml LPS, 5 μM nigericin. The class given is cell-based. The method, then: THP-1 cells (ATCC #TIB-202) were grown in RPMI containing L-glutamine (Gibco #11835) supplemented with ImM sodium pyruvate (Sigma #S8636) and penicillin (100 units/ml)/streptomycin (0.1 mg/ml) (Sigma #P4333) in 10% Fetal Bovine Serum (FBS) (Sigma #F0804). The cells were routinely passaged and grown to confluency ([…]). On the day of the experiment, THP-1 cells were harvested and resuspended into RPMI medium (without FBS). The cells were then counted and viability (>90%) checked by Trypan blue (Sigma #T8154). Appropriate dilutions were made to give a concentration of 625,000 cells/ml. To this diluted cell solution was added LPS (Sigma #L4524) to give a 1 μg/ml Final Assay Concentration (FAC). […] of the final preparation was aliquoted into each well of a 96-well plate. The plate thus prepared was used for compound screening.
The following method step-by-step assay was followed for compound screening. • 1. Seed THP-1 cells (25,000 cells/well) containing 1.0 μg/ml LPS in 40 μl of RPMI medium (without FBS) in 96-well, black walled, clear bottom cell culture plates coated with poly-D-lysine (VWR #734-0317) • 2. Add 5 μl compound (8 points half-log dilution, with 10 μM top dose) or vehicle (DMSO 0.1% FAC) to the appropriate wells • 3. Incubate for 3 hrs at 37° C. in 5% CO2 • 4. Add 5 μl nigericin (Sigma #N7143) (FAC 5 μM) to all wells • 5. Incubate for 1 hr at 37° C. and 5% CO2 • 6. At the end of the incubation period, spin plates at 300×g for 3 mins and remove supernatant • 7. Then add 50 μl of resazurin (Sigma #R7017) (FAC 100 μM resazurin in RPMI medium without FBS) and incubate plates for a further 1-2 hrs at 37° C. and 5% CO2 • 8. Plates were read in an Envision reader at Ex 560 nm and Em 590 nm • 9. IC50 data is fitted to a non-linear regression equation (log inhibitor vs response-variable slope 4-parameters)
On the technique in general: Alamar Blue is a resazurin reagent that responds to reducing activity.

The target of test [2] is T1, NLRP3. Put plainly: Human whole blood IL-1β release assay (LPS + nigericin, AlphaLisa). The class given is cell-based. Also noted: Plate out 80 μl of whole blood containing 1 μg/ml of LPS in 96-well, clear bottom cell culture plate; from tissue; host or cells: human whole blood from healthy donors (Li-heparin). To be noted: NLRP3 inhibitory activity in human whole blood, 1 μg/ml LPS, 10 μM nigericin, read-out: HWB IC50. Here is the method: For systemic delivery, the ability to inhibit NLRP3 when the compounds are present within the bloodstream is of great importance. For this reason, the NLRP3 inhibitory activity of a number of compounds in human whole blood was investigated in accordance with the following protocol.
Human whole blood in Li-heparin tubes was obtained from healthy donors from a volunteer donor panel. • 1. Plate out 80 μl of whole blood containing 1 μg/ml of LPS in 96-well, clear bottom cell culture plate (Corning #3585) • 2. Add 10 μl compound (8 points half-log dilution with 10 μM top dose) or vehicle (DMSO 0.1% FAC) to the appropriate wells • 3. Incubate for 3 hrs at 37° C., 5% CO2 • 4. Add 10 μl nigericin (Sigma #N7143) (10 μM FAC) to all wells • 5. Incubate for 1 hr at 37° C., 5% CO2 • 6. At the end of the incubation period, spin plates at 300×g for 5 mins to pellet cells and remove 20 μl of supernatant and add to 96-well v-bottom plates for IL-1β analysis (note: these plates containing the supernatants can be stored at −80° C. to be analysed at a later date) • 7. IL-1β was measured according to the manufacturer protocol (Perkin Elmer-AlphaLisa IL-1 Kit AL220F-5000) • 8. IC50 data is fitted to a non-linear regression equation (log inhibitor vs response-variable slope 4-parameters)
(In Alpha technology, singlet oxygen from a donor bead excites a nearby acceptor bead.)

T1 sequence (Q96P20 whole entry): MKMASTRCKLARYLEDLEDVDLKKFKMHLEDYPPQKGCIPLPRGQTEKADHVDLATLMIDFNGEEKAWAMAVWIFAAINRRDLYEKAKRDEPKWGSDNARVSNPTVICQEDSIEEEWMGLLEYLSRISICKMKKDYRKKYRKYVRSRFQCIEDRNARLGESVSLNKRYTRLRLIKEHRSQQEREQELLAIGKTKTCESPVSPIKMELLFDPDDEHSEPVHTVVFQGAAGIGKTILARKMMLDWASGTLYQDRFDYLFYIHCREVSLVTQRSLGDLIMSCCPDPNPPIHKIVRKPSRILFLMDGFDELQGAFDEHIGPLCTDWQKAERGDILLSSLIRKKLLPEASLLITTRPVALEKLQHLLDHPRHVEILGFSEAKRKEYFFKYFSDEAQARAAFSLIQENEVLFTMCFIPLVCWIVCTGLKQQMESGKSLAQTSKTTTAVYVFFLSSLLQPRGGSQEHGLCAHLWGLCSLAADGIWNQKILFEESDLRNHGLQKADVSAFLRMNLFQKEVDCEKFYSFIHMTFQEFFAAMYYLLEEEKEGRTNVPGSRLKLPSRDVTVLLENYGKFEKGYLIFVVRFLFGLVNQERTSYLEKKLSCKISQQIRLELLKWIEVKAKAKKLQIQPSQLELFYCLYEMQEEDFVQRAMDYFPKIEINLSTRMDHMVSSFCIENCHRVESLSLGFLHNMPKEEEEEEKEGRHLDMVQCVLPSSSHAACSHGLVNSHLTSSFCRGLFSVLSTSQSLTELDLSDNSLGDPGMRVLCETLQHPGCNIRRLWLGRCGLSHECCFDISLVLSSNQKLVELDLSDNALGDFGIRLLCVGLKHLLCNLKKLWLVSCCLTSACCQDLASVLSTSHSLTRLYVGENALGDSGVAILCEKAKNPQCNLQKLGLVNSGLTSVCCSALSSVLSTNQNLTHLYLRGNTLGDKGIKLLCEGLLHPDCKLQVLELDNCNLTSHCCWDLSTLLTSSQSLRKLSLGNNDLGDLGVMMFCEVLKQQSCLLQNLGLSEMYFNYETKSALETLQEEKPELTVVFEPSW

In the case of `O=C(Nc1c2c(cc3c1CCC3)CCC2)NS(=O)(=O)Cc1ccccc1` [Example 1, N-((1,2,3,5,6,7-Hexahydro-s-indacen-4-yl)carbamoyl)-1-phenyl Methanesulfonamide, Potassium Salt], the concentration for half-maximal inhibition (IC50) in test [1] was at most 1 µM; in test [2], at most 5 µM. In test [1], `CC(C)CS(=O)(=O)NC(=O)Nc1c2c(cc3c1CCC3)CCC2` [Example 2, N-((1,2,3,5,6,7-Hexahydro-s-indacen-4-yl)carbamoyl)-2-methylpropane-1-sulfonamide, Potassium Salt] returned a half-inhibitory concentration (IC50) of at most 1 µM. For `C=CS(=O)(=O)NC(=O)Nc1c2c(cc3c1CCC3)CCC2` [Example 3, N-((1,2,3,5,6,7-Hexahydro-s-indacen-4-yl)carbamoyl)ethenesulfonamide], the IC50 in test [1] is at most 1 µM; in test [2] it was at most 5 µM. The like results for `O=C(Nc1c2c(cc3c1CCC3)CCC2)NS(=O)(=O)Cc1cc(Cl)cc(Cl)c1` [Example 4, 1-(3,5-Dichlorophenyl)-N-((1,2,3,5,6,7-hexahydro-s-indacen-4-yl)carbamoyl)methanesulfonamide, Sodium Salt] were, in that order, at most 1 µM and over 10 µM.

Take `O=C(Nc1c2c(cc3c1CCC3)CCC2)NS(=O)(=O)Cc1ccc(Cl)cc1` [Example 5, 1-(4-Chlorophenyl)-N-((1,2,3,5,6,7-hexahydro-s-indacen-4-yl)carbamoyl)methanesulfonamide, Sodium Salt]: the IC50 in test [1] is at most 1 µM; in test [2] it was 5 to 7.5 µM.

Turning to `O=C(Nc1c2c(cc3c1CCC3)CCC2)NS(=O)(=O)Cc1ccc(Cl)c(Cl)c1` [Example 6, 1-(3,4-Dichlorophenyl)-N-((1,2,3,5,6,7-hexahydro-s-indacen-4-yl)carbamoyl)methanesulfonamide, Sodium Salt], the IC50 in test [1] was at most 1 µM; in test [2] it was over 10 µM. In the same order, the values of `O=C(Nc1c2c(cc3c1CCC3)CCC2)NS(=O)(=O)Cc1ccc(F)cc1` [Example 7, 1-(4-Fluorophenyl)-N-((1,2,3,5,6,7-hexahydro-s-indacen-4-yl)carbamoyl)methanesulfonamide, Sodium Salt] are at most 1 µM and at most 5 µM. Regarding `N#Cc1ccc(CS(=O)(=O)NC(=O)Nc2c3c(cc4c2CCC4)CCC3)cc1` [Example 8, 1-(4-Cyanophenyl)-N-((1,2,3,5,6,7-hexahydro-s-indacen-4-yl)carbamoyl)methanesulfonamide, Sodium Salt], the IC50 in test [1] was at most 1 µM; in test [2] it was at most 5 µM. As to `COC(=O)c1ccc(CS(=O)(=O)NC(=O)Nc2c3c(cc4c2CCC4)CCC3)cc1` [Example 9, Methyl 4-((N-((1,2,3,5,6,7-hexahydro-s-indacen-4-yl)carbamoyl)sulfamoyl)methyl)benzoate, Sodium Salt], the IC50 is at most 1 µM in test [1] and at most 5 µM in test [2].

On to `O=C(Nc1c2c(cc3c1CCC3)CCC2)NS(=O)(=O)Cc1ccc(C(F)(F)F)cc1` [Example 10, N-((1,2,3,5,6,7-Hexahydro-s-indacen-4-yl)carbamoyl)-1-(4-(trifluoromethyl)phenyl)methanesulfonamide, Sodium Salt], for which the IC50 in test [1] is at most 1 µM; in test [2] it was 5 to 7.5 µM.

Take `COc1cccc(CS(=O)(=O)NC(=O)Nc2c3c(cc4c2CCC4)CCC3)c1` [Example 11, N-((1,2,3,5,6,7-Hexahydro-s-indacen-4-yl)carbamoyl)-1-(3-methoxyphenyl)methanesulfonamide, Sodium Salt]: the half-inhibitory concentration (IC50) in test [1] was at most 1 µM; in test [2] it was 7.5 to 10 µM.

In the case of `O=C(Nc1c2c(cc3c1CCC3)CCC2)NS(=O)(=O)Cc1ccc(Cl)cc1F` [Example 12, 1-(4-Chloro-2-fluorophenyl)-N-((1,2,3,5,6,7-hexahydro-s-indacen-4-yl)carbamoyl)methanesulfonamide, Sodium Salt], the values for the IC50 in test [1] and in test [2] were at most 1 µM and over 10 µM, respectively. The like results for `O=C(Nc1c2c(cc3c1CCC3)CCC2)NS(=O)(=O)Cc1ccc(Cl)c(F)c1` [Example 13, 1-(4-Chloro-3-fluorophenyl)-N-((1,2,3,5,6,7-hexahydro-s-indacen-4-yl)carbamoyl)methanesulfonamide, Sodium Salt] were, in that order, at most 1 µM and over 10 µM. In the case of `Cc1ccc(CS(=O)(=O)NC(=O)Nc2c3c(cc4c2CCC4)CCC3)cc1` [Example 14, N-((1,2,3,5,6,7-Hexahydro-s-indacen-4-yl)carbamoyl)-1-(p-tolyl)methanesulfonamide, Sodium Salt], the IC50 was at most 1 µM in test [1] and 5 to 7.5 µM in test [2]. For `O=C(Nc1c2c(cc3c1CCC3)CCC2)NS(=O)(=O)Cc1ccccc1Cl` [Example 15, 1-(2-Chlorophenyl)-N-((1,2,3,5,6,7-hexahydro-s-indacen-4-yl)carbamoyl)methanesulfonamide, Sodium Salt], the results for the IC50 in test [1] and in test [2] were at most 1 µM and over 10 µM, respectively. The molecule `O=C(Nc1c2c(cc3c1CCC3)CCC2)NS(=O)(=O)Cc1ccccc1C(F)(F)F` [Example 16, N-((1,2,3,5,6,7-Hexahydro-s-indacen-4-yl)carbamoyl)-1-(2-(trifluoromethyl)phenyl)methanesulfonamide, Sodium Salt] registered a half-inhibitory concentration (IC50) in test [1] of at most 1 µM. `O=C(Nc1c2c(cc3c1CCC3)CCC2)NS(=O)(=O)Cc1ccccc1Br` [Example 17, 1-(2-Bromophenyl)-N-((1,2,3,5,6,7-hexahydro-s-indacen-4-yl)carbamoyl)methanesulfonamide, Sodium Salt] came in with a concentration for half-maximal inhibition (IC50) in test [1] of at most 1 µM.

For `COC(=O)c1ccccc1CS(=O)(=O)NC(=O)Nc1c2c(cc3c1CCC3)CCC2` [Example 18, Methyl 2-((N-((1,2,3,5,6,7-hexahydro-s-indacen-4-yl)carbamoyl)sulfamoyl)methyl)benzoate], the half-inhibitory concentration (IC50) in test [1] is at most 1 µM.

As to `O=C(Nc1c2c(cc3c1CCC3)CCC2)NS(=O)(=O)Cc1cccc(Br)c1` [Example 19, 1-(3-Bromophenyl)-N-((1,2,3,5,6,7-hexahydro-s-indacen-4-yl)carbamoyl)methanesulfonamide, Sodium Salt], the IC50 in test [1] was at most 1 µM; in test [2], over 10 µM. In the same order, the values of `Cc1cccc(CS(=O)(=O)NC(=O)Nc2c3c(cc4c2CCC4)CCC3)c1` [Example 20, N-((1,2,3,5,6,7-Hexahydro-s-indacen-4-yl)carbamoyl)-1-(m-tolyl)methanesulfonamide, Sodium Salt] are at most 1 µM and 5 to 7.5 µM. In turn, `O=C(Nc1c(-c2ccncc2)cc(F)c2c1CCC2)NS(=O)(=O)Cc1ccccc1` [Example 25, N-((7-Fluoro-5-(pyridin-4-yl)-2,3-dihydro-1H-inden-4-yl)carbamoyl)-1-phenylmethanesulfonamide] showed an IC50 in test [1] of 2 to 10 µM. For `O=C(Nc1c(-c2ccncc2)cc(F)c2c1CCC2)NS(=O)(=O)CCc1ccccc1` [Example 33, N-((7-Fluoro-5-(pyridin-4-yl)-2,3-dihydro-1H-inden-4-yl)carbamoyl)-2-phenylethanesulfonamide], the IC50 in test [2] fell in the range of 5 to 7.5 µM. `CC(C)c1cc(F)cc(-c2ccnc(C#N)c2)c1NC(=O)NS(=O)(=O)C(C)c1ccccc1` (stereo not drawn) [Example 34, N-((2-(2-Cyanopyridin-4-yl)-4-fluoro-6-isopropylphenyl)carbamoyl)-1-phenylethanesulfonamide] yielded a 50% inhibitory concentration (IC50) in test [1] of 2 to 10 µM.

A word on the IC50: it is the midpoint of a concentration-inhibition curve.

The values are drawn from US11518739B2, “Sulfonamide carboxamide compounds” (Inflazome Limited, priority 2017, dated 2022).
